Patent US20060111342A1, “Insecticidal tricyclic derivatives” (priority 2002, published 2006)

Experiments:
[1] = test system: cotton aphid (Aphis gossypii); experiment: Cotton aphid mortality on sprayed cotton plants, assessed after 24 hours (Table 2); assay type: in vivo; settings: read-out: Mortality of Cotton Aphid On Cotton Plants: More Than 75% Mortality (A)
Procedure: (§1) The compounds of formula I useful in the present invention were tested for insecticidal activity by observing mortality in a population of cotton aphid (Aphis gossypii) on treated cotton plants caused by a test compound, when compared to like populations of cotton aphid on untreated plants. These tests were conducted in the following manner:
For each rate of application of test compound, two seven-to-ten days old cotton seedlings (Gossypium hirsutium) grown in 7.6 cm diameter pots were selected for the test. Each test plant was infested with about 120 adult cotton aphids by placing onto each test plant cuttings of leaves from cotton plants grown in a cotton aphid colony. Once infested, the test plants were maintained for up to about 12 hours to allow complete translocation of the aphids onto the test plant. A solution comprising 1000 part per million (ppm) of each test compound was prepared by dissolving 10 milligrams of the test compound in 1 mL of acetone. Each solution was then diluted with 9 mL of a solution of 0.03 mL of polyoxyethylene(10) isooctylphenyl ether in 100 mL of water. […] After this time, each plant was assessed for percent mortality caused by the test compound when compared to the population of aphids that was infested onto the test plants prior to treatment with test compound. […]

[2] = test system: cotton aphid (Aphis gossypii); experiment: Cotton aphid test in the same manner, more definitive percent mortality at selected rates and exposure times (Table 3); assay type: in vivo
Procedure: as §1
For each rate of application of test compound, two seven-to-ten days old cotton seedlings (Gossypium hirsutium) grown in 7.6 cm diameter pots were selected for the test. Each test plant was infested with about 120 adult cotton aphids by placing onto each test plant cuttings of leaves from cotton plants grown in a cotton aphid colony. Once infested, the test plants were maintained for up to about 12 hours to allow complete translocation of the aphids onto the test plant. A solution comprising 1000 part per million (ppm) of each test compound was prepared by dissolving 10 milligrams of the test compound in 1 mL of acetone. Each solution was then diluted with 9 mL of a solution of 0.03 mL of polyoxyethylene(10) isooctylphenyl ether in 100 mL of water. About 2.5 mL of solution of each test compound was needed to spray each replicate of test plant (5 mL total for each test compound). If needed, the solution of 1000 ppm of test compound was serially diluted with a solution of 10% acetone and 300 ppm of polyoxyethylene(10) isooctylphenyl ether in water to provide solutions of each test compound for lower rates of application, for example, 300 ppm, 100 ppm, 30 ppm, or 10 ppm. Each replicate of test plant was sprayed with the solutions of test compound until run-off on both the upper and lower surfaces of the leaves. All the test plants were sprayed using a DeVilbus Atomizer Model 152 (Sunrise Medical, Carlsbad, Calif.) at a pressure of about 0.63-0.74 kilogram per square centimeter from a distance of about 30.5 centimeters from the test plants. For comparison purposes, a solution of a standard, such as amitraz or demethylchlordimeform (DCDM), prepared in a manner analogous to that set forth above, as well as a solution of 10% acetone and 300 ppm of polyoxyethylene(10) isooctylphenyl ether in water containing no test compound were also sprayed onto test plants. Upon completion of spraying the solutions of test compound, the solution of standard, and the solution containing no test compound, the plants were allowed to dry. […] After this time, each plant was assessed for percent mortality caused by the test compound when compared to the population of aphids that was infested onto the test plants prior to treatment with test compound. […] If there was 75% mortality or greater of the cotton aphid, a test compound was designated as being more insecticidally active (A).
In a test conducted in the same manner as set forth above, certain compounds of formula I were tested to determine a more definitive percent mortality of cotton aphid.

tobacco hornworm = settings: in vivo; cited from earlier work

CN1CCC(=C2c3ccccc3Oc3ccccc32)CC1 [Compound 8, 9-(1-methyl-4-piperidylidene)xanthene]
mortality at 100 ppm [1]: > 75%
mortality at 100 ppm ([2]; Aphis gossypii, 96 h, read-out: Percent Mortality of Cotton Aphid on Cotton Plants): 88%

CN1CCN(C2Cc3ccccc3Sc3cc(F)c(Cl)cc32)CC1 (stereo not drawn) [Compound 95]
Percent Mortality of Cotton Aphid on Cotton Plants ([2]; 1000 ppm, 72 hours exposure): 82%

CN1CCN(C2Cc3ccccc3Sc3c(F)cc(Cl)cc32)CC1.O=S(O)S(=O)(=O)O (stereo not drawn) [Compound 96]
Percent Mortality of Cotton Aphid on Cotton Plants ([2]; 300 ppm, 168 hours exposure): 100%

CN1CCN(C2Cc3ccccc3Sc3c(F)ccc(F)c32)CC1 (stereo not drawn) [Compound 97]
Percent Mortality of Cotton Aphid on Cotton Plants ([2]; 100 ppm, 72 hours exposure): 65%

CCc1ccc2c(c1)C(N1CCN(C)CC1)Cc1ccccc1S2.O=S(=O)(O)O (stereo not drawn) [Compound 98]
Percent Mortality of Cotton Aphid on Cotton Plants ([2]; 100 ppm, 168 hours exposure): 90%

COc1ccc2c(c1)Sc1ccccc1CC2N1CCN(C)CC1 (stereo not drawn) [Compound 101]
Percent Mortality of Cotton Aphid on Cotton Plants ([2]; 100 ppm, 72 hours exposure): 60%

COc1cccc2c1Sc1ccccc1CC2N1CCN(C)CC1 (stereo not drawn) [Compound 102]
Percent Mortality of Cotton Aphid on Cotton Plants ([2]; 100 ppm, 72 hours exposure): 33%

CSc1ccc2c(c1)C(N1CCN(C)CC1)Cc1ccccc1S2.O=C(O)/C=C\C(=O)O (stereo not drawn) [Compound 103]
Percent Mortality of Cotton Aphid on Cotton Plants ([2]; 1000 ppm, 72 hours exposure): 90%

CN1CCN(C2Cc3ccccc3Sc3ccc(C(F)(F)F)cc32)CC1 (stereo not drawn) [Compound 105]
Percent Mortality of Cotton Aphid on Cotton Plants ([2]; 1000 ppm, 96 hours exposure): 85%

C[N+]1([O-])CCN(C2Cc3ccccc3Sc3ccc(OC(F)(F)F)cc32)CC1 (stereo not drawn) [Compound 107]
Percent Mortality of Cotton Aphid on Cotton Plants ([2]; 100 ppm, 168 hours exposure): 82%

CN1CCN(C2Cc3ccc(F)cc3Sc3ccc(OC(F)(F)F)cc32)CC1 (stereo not drawn) [Compound 108]
Percent Mortality of Cotton Aphid on Cotton Plants ([2]; 1000 ppm, 168 hours exposure): 100%

CN1CCN(C2Cc3ccccc3Sc3ccc(OC(F)(F)C(F)F)cc32)CC1 (stereo not drawn) [Compound 109]
Percent Mortality of Cotton Aphid on Cotton Plants ([2]; 1000 ppm, 168 hours exposure): 100%

CN1CCN(C2Cc3ccccc3Sc3c2ccc(Cl)c3Cl)CC1.O=C(O)/C=C\C(=O)O (stereo not drawn) [Compound 110]
Percent Mortality of Cotton Aphid on Cotton Plants ([2]; 300 ppm, 168 hours exposure): 65%

Cc1cc2c(cc1F)Sc1ccccc1CC2N1CCN(C)CC1 (stereo not drawn) [Compound 111]
Percent Mortality of Cotton Aphid on Cotton Plants ([2]; 100 ppm, 72 hours exposure): 94%

CN1CCN(C2Cc3ccccc3Sc3cccc(C4CC4)c32)CC1 (stereo not drawn) [Compound 112]
Percent Mortality of Cotton Aphid on Cotton Plants ([2]; 100 ppm, 72 hours exposure): 92%

CN1CCN(C2Cc3ccccc3Sc3ccc(C4CCCC4)cc32)CC1 (stereo not drawn) [Compound 113]
Percent Mortality of Cotton Aphid on Cotton Plants ([2]; 100 ppm, 72 hours exposure): 78%

CC(=O)c1ccc2c(c1)C(N1CCN(C)CC1)Cc1ccccc1S2 (stereo not drawn) [Compound 115]
Percent Mortality of Cotton Aphid on Cotton Plants ([2]; 100 ppm, 72 hours exposure): 93%

CN1CCN(C2Cc3cc(F)ccc3Sc3ccccc32)CC1 (stereo not drawn) [Compound 118]
Percent Mortality of Cotton Aphid on Cotton Plants ([2]; 100 ppm, 72 hours exposure): 85%

CN1CCN(C2Cc3ccc(F)cc3Sc3ccccc32)CC1 (stereo not drawn) [Compound 119]
Percent Mortality of Cotton Aphid on Cotton Plants ([2]; 100 ppm, 72 hours exposure): 85%

CN1CCN(C2Cc3cc(F)ccc3Sc3ccc(Cl)cc32)CC1 (stereo not drawn) [Compound 121]
Percent Mortality of Cotton Aphid on Cotton Plants ([2]; 1000 ppm, 72 hours exposure): 65%

CSc1ccc2c(c1)C(N1CCN(C)CC1)Cc1cc(F)ccc1S2 (stereo not drawn) [Compound 122]
Percent Mortality of Cotton Aphid on Cotton Plants ([2]; 100 ppm, 72 hours exposure): 88%

CSc1ccc2c(c1)C(N1CCN(C)CC1)Cc1ccc(F)cc1S2 (stereo not drawn) [Compound 123]
Percent Mortality of Cotton Aphid on Cotton Plants ([2]; 100 ppm, 72 hours exposure): 96%

CCSc1ccc2c(c1)C(N1CCN(C)CC1)Cc1ccc(F)cc1S2 (stereo not drawn) [Compound 124]
Percent Mortality of Cotton Aphid on Cotton Plants ([2]; 100 ppm, 72 hours exposure): 95%

CN1CCN(C2Cc3ccc(F)cc3Sc3ccc(C(F)(F)F)cc32)CC1.O=C(O)/C=C\C(=O)O.O=C(O)/C=C\C(=O)O (stereo not drawn) [Compound 125]
Percent Mortality of Cotton Aphid on Cotton Plants ([2]; 100 ppm, 72 hours exposure): 90%

CN1CCN(C2Cc3ccc(F)cc3Sc3ccc(OC(F)(F)F)cc32)CC1 (stereo not drawn) [Compound 126]
Percent Mortality of Cotton Aphid on Cotton Plants ([2]; 100 ppm, 168 hours exposure): 100%

CC(C)c1ccc2c(c1)C(N1CCN(C)CC1)Cc1ccc(F)cc1S2 (stereo not drawn) [Compound 127]
Percent Mortality of Cotton Aphid on Cotton Plants ([2]; 1000 ppm, 168 hours exposure): 100%

CC(C)c1ccc2c(c1)C(N1CCN(C)CC1)Cc1ccc(F)cc1S2.O=C(O)/C=C\C(=O)O (stereo not drawn) [Compound 128]
Percent Mortality of Cotton Aphid on Cotton Plants ([2]; 100 ppm, 72 hours exposure): 95%

CSc1ccc2c(c1)C(N1CCN(Cc3ccncc3)CC1)Cc1ccccc1S2 (stereo not drawn) [Compound 173]
Percent Mortality of Cotton Aphid on Cotton Plants ([2]; 1000 ppm, 96 hours exposure): 82%

CSc1ccc2c(c1)C(N1CCCN(C)CC1)Cc1ccccc1S2 (stereo not drawn) [Compound 183]
Percent Mortality of Cotton Aphid on Cotton Plants ([2]; 1000 ppm, 168 hours exposure): 100%

CN1CCCN(C2Cc3ccccc3Sc3ccc(OC(F)(F)F)cc32)CC1 (stereo not drawn) [Compound 185]
Percent Mortality of Cotton Aphid on Cotton Plants ([2]; 1000 ppm, 168 hours exposure): 100%

CN1CCCN(C2Cc3ccccc3Oc3ccc(OC(F)(F)F)cc32)CC1 (stereo not drawn) [Compound 186]
Percent Mortality of Cotton Aphid on Cotton Plants ([2]; 100 ppm, 168 hours exposure): 100%

CN1CCN(C2=Nc3ccccc3Sc3ccc(Cl)cc32)CC1 [Compound 189]
Percent Mortality of Cotton Aphid on Cotton Plants ([2]; 1000 ppm, 168 hours exposure): 55%

CN1CCN(C2=Nc3ccccc3Sc3ccc(OC(F)(F)F)cc32)CC1 [Compound 194]
Percent Mortality of Cotton Aphid on Cotton Plants ([2]; 100 ppm, 168 hours exposure): 51%

COc1ccc2c(c1)N(CCCN(C)C)c1ccccc1S2 [Compound 205]
Percent Mortality of Cotton Aphid on Cotton Plants ([2]; 500 ppm, 72 hours exposure): 40%

CN1CCN(CCCN2c3ccccc3Sc3ccc(C(F)(F)F)cc32)CC1.Cl.Cl [Compound 207]
Percent Mortality of Cotton Aphid on Cotton Plants ([2]; 1000 ppm, 72 hours exposure): 25%

Cl.Cl.OCCN1CCN(CCCN2c3ccccc3Sc3ccc(C(F)(F)F)cc32)CC1 [Compound 208]
Percent Mortality of Cotton Aphid on Cotton Plants ([2]; 500 ppm, 72 hours exposure): 43%

CNCCCN1c2ccccc2CCc2ccccc21 [Desipramine, desipramine]
anti-feeding activity against tobacco hornworm (tobacco hornworm): anti-feeding activity

CN(C)CCC=C1c2ccccc2CCc2ccccc21 [amitriptyline]
anti-feeding activity against tobacco hornworm (tobacco hornworm): anti-feeding activity
